SMILES strings stand for the structures.

The subject of this experiment is FGF2-induced vascularisation of AngioSponge. Description: AngioSponge in vivo angiogenesis model (CD31/PECAM-1 staining). More on the design: species or system mice. The conditions noted are these: s.c. daily or twice-weekly, 10 days. The method, then:
Angiogenesis in vivo was evaluated using the Angiosponge model in which subcutaneously implanted, agarose-captured FGF2 gelfoam sterile sponges (Pfizer, West Ryde, Australia) induces vascularisation over a 10-day period responsive to angiogenesis inhibition as determined by the number of vessels with identifiable lumen that stained positive for CD31/PECAM-1, an antigen present specifically on endothelial cells ([McCarty et al, 2002]). PG545 was administered s.c. on the flank distal to the AngioSponge implant. This method was also used to examine five medium-sized primary tumours from each group of Lewis Lung Carcinoma (LL/2)-bearing mice.
Cell lines, cell culture, reagents and compounds
Tumour cell lines were cultured in RPMI1640 or DMEM cell culture medium (Invitrogen, Mt Waverley, Australia), 10% foetal bovine serum (Invitrogen or Hyclone/Quantum Scientific), 100 IU/mL penicillin (Invitrogen), 100 µ g/mL streptomycin (Invitrogen or Sigma-Aldrich, Castle Hill, Australia). […]
staining. For quantification, three independent visual fields (20x magnification) were chosen and positive stained spots or vessels with identifiable lumen were counted.
Angiogenesis inhibition and induction were calculated using the equations: […]

Consider `CC(C)CCC[C@@H](C)[C@H]1CCC2C3CCC4C[C@@H](O[C@@H]5O[C@H](COS(=O)(=O)[O-])[C@@H](O[C@H]6O[C@H](COS(=O)(=O)[O-])[C@@H](O[C@H]7O[C@H](COS(=O)(=O)[O-])[C@@H](O[C@H]8O[C@H](COS(=O)(=O)[O-])[C@@H](OS(=O)(=O)[O-])[C@H](OS(=O)(=O)[O-])[C@H]8OS(=O)(=O)[O-])[C@H](OS(=O)(=O)[O-])[C@H]7OS(=O)(=O)[O-])[C@H](OS(=O)(=O)[O-])[C@H]6OS(=O)(=O)[O-])[C@H](OS(=O)(=O)[O-])[C@H]5OS(=O)(=O)[O-])CC[C@]4(C)C3CC[C@@]21C.[Na+].[Na+].[Na+].[Na+].[Na+].[Na+].[Na+].[Na+].[Na+].[Na+].[Na+].[Na+].[Na+]` (stereo partly shown) [PG545], for which the “inhibition of CD31 staining” value is “Significant inhibition of CD31 staining”.

The record behind these values is publication PMC3049593 (British Journal of Cancer, 2011).
